Source: ChEMBL document CHEMBL1153013, “Bio-active compounds from Euphorbia cornigera Boiss” (2009)
≈ marks a conversion by molar mass, not a printed value.

tested on: Biomphalaria glabrata; experiment: Molluscicidal activity against Biomphalaria glabrata after 24 hrs; assay type: functional

C/C=C(\C)C(=O)OCC1=C[C@@H]2C(=O)[C@]3(C=C(C)[C@H](OC(C)=O)[C@@]3(O)[C@@H]1OC(=O)c1ccccc1NC(=O)c1ccccc1N)[C@H](C)C[C@@H]1[C@H]2C1(C)C and C/C=C(\C)C(=O)OCC1=C[C@@H]2C(=O)[C@]3(C=C(C)[C@H](OC(=O)c4ccccc4NC(=O)c4ccccc4N)[C@@]3(O)[C@@H]1OC(C)=O)[C@H](C)C[C@@H]1[C@H]2C1(C)C are within 1.5-fold of each other in LC50: 0.0145 µg/mL (≈ 0.0204 µM) for the first, 0.0125 µg/mL (≈ 0.0176 µM) for the second.

CC(=O)OCC1=C[C@@H]2C(=O)[C@]3(C=C(C)[C@H](OC(=O)c4ccccc4NC(=O)c4ccccc4N)[C@@]3(O)[C@@H]1O)[C@H](C)C[C@@H]1[C@H]2C1(C)C and CC(=O)O[C@H]1C(C)=C[C@]23C(=O)[C@@H](C=C(COC(=O)c4ccccc4NC(=O)c4ccccc4N)[C@@H](O)[C@]12O)[C@H]1[C@@H](C[C@H]3C)C1(C)C are within 1.5-fold of each other in LC50: 0.0143 µg/mL (≈ 0.0227 µM) for the first, 0.0192 µg/mL (≈ 0.0305 µM) for the second.

Compared with CC(=O)OCC1=C[C@@H]2C(=O)[C@]3(C=C(C)[C@H](OC(C)=O)[C@@]3(O)[C@@H]1OC(=O)c1ccccc1NC(=O)c1ccccc1N)[C@H](C)C[C@@H]1[C@H]2C1(C)C, CC(=O)OCC1=C[C@@H]2C(=O)[C@]3(C=C(C)[C@H](OC(=O)c4ccccc4NC(=O)c4ccccc4N)[C@@]3(O)[C@@H]1OC(C)=O)[C@H](C)C[C@@H]1[C@H]2C1(C)C is 1.6-fold lower in LC50: 0.0183 µg/mL (≈ 0.0273 µM) for the first, 0.0114 µg/mL (≈ 0.017 µM) for the second.

First: C/C=C(\C)C(=O)O[C@H]1C(C)=C[C@]23C(=O)[C@@H](C=C(COC(=O)c4ccccc4NC(=O)c4ccccc4N)[C@@H](OC(C)=O)[C@]12O)[C@H]1[C@@H](C[C@H]3C)C1(C)C
Second: C/C=C(\C)C(=O)O[C@@H]1C(COC(=O)c2ccccc2NC(=O)c2ccccc2N)=C[C@@H]2C(=O)[C@]3(C=C(C)[C@H](OC(C)=O)[C@@]13O)[C@H](C)C[C@@H]1[C@H]2C1(C)C
The LC50 of the first is 4-fold higher: 0.0615 µg/mL (≈ 0.0865 µM) for the first, 0.0155 µg/mL (≈ 0.0218 µM) for the second.

Compared with O=C(Nc1ccc([N+](=O)[O-])cc1Cl)c1cc(Cl)ccc1O [NICLOSAMIDE], C/C=C(\C)C(=O)O[C@@H]1C(COC(C)=O)=C[C@@H]2C(=O)[C@]3(C=C(C)[C@H](OC(=O)c4ccccc4NC(=O)c4ccccc4N)[C@@]13O)[C@H](C)C[C@@H]1[C@H]2C1(C)C is 1.9-fold lower in LC50: 0.025 µg/mL (≈ 0.0764 µM) for the first, 0.0135 µg/mL (≈ 0.019 µM) for the second.

With C/C=C(\C)C(=O)O[C@H]1C(C)=C[C@]23C(=O)[C@@H](C=C(COC(C)=O)[C@@H](OC(=O)c4ccccc4NC(=O)c4ccccc4N)[C@]12O)[C@H]1[C@@H](C[C@H]3C)C1(C)C the LC50 was 0.0754 µg/mL (≈ 0.106 µM).
